Measurements: patent US20230201235A1, “INHIBITION OF NIDOVIRUSES THAT ENCODE NSP15” (The University of Chicago, priority 2020, published 2023)

How the values were obtained:
[1] = molecular target: T1, SARS-CoV-2 Nsp15 (Severe acute respiratory syndrome coronavirus 2, UniProt P0DTD1); type: binding; conditions: co-crystal structures, Table 1
[2] = molecular target: T2, Nsp15 (Severe acute respiratory syndrome coronavirus 2, UniProt P0DTD1); assay: Nsp15 differential scanning fluorimetry (DSF) assay; type: binding; conditions: 10 μM Nsp15, 1 mM ligand, 10 mM MnCl2; for melting temperature (Tm) of Nsp15 in presence of ligand: same Tm as control
Description: The Nsp15 differential scanning fluorimetry (DSF) assays were performed in a buffer 20 mM Tris pH 7.5, 100 mM NaCl, 1 mM TCEP that was supplemented with SYPRO™ Orange protein gel stain (Invitrogen, Carlsbad, Calif.) to 5× final concentration. 10 μM of the Nsp15 was used with the addition of each of 1 mM of tipiracil, 5′GpU, 5′UMP, 3′UMP, and TMP to get final molar ratio of protein to ligand 1:100. Additionally, the samples with ligands were supplemented with 10 mM MnCl2. After 30 min of incubation of samples at room-temperature, fluorescence measurements were done using CFX CONNECT™ Real-Time System (BioRad, Hercules, Calif.). Fluorescent signal was detected with temperature rate 1° C. per 60 sec. Samples were measured in triplicate, and the representative standard deviation of measurements are depicted for Nsp15 control sample and complex of the Nsp15 with addition of tipiracil.

[3] = molecular target: T2, Nsp15; assay: Fluorescence-based endoribonuclease assay; type: biochemical, SARS-CoV-2
Description: The oligonucleotide dArUdAdA with 5′-6-FAM and 3′-6-TAMRA was synthetized by GenScript Biotech (Piscataway, N.J.). The concentration of 0.5 μM substrate was used with 2 μM Nsp15 in a buffer containing 20 mM HEPES at pH 7.8, 100 mM NaCl, and 5 mM MnCl2. Detection of the emission of FAM fluorescence signal was done on CFX CONNECT™ Real-Time System (Bio-Rad Laboratories, Hercules, Calif.).
Cleavage of oligonucleotide dArUdAdA with 5′-6-FAM and 3′-6-TAMRA substrate was tested using polyacrylamide gel electrophoresis. The concentration of labeled substrate was […], and the Nsp15 concentration varied to achieve different molar ratios of substrate to Nsp15. Samples were mixed in a buffer with 20 mM HEPES at pH 7.8, 100 mM NaCl, and 5 mM MnCl2. After 10 minutes of incubation, samples were loaded on NUPAGE Tris-Acetate 3-8% gel, and the electrophoresis was done on 80 V for 1 h. The detection of FAM emission on gel was performed using the Gel DOC™ EZ System (Bio-Rad Laboratories, Hercules, Calif.).

[4] = molecular target: T1, SARS-CoV-2 Nsp15; assay: Radioactivity-based endoribonuclease assay; type: biochemical
[5] = test system: SARS-CoV-2; assay: Whole cell assays: spike protein immunostaining and viral RNA qRT-PCR; type: cell-based
[6] = test system: A549-hACE2 cells; conditions: 1-50 μM

Compound | binding to the active site of Nsp15 in the crystal structure [1] | melting temperature (Tm) of Nsp15 in presence of ligand [2] | IC50 [3] | shift of Nsp15 denaturation profile to higher temperatures ([2]; versus control) | IC50 [4] | inhibition of cleavage reaction at higher Mn2+ concentration ([4]; octamer RNA, higher Mn2+ ion concentration (15 mM MnCl2)) | inhibition of virus (spike protein and RNA expression) [5] | effect on viability of cells [6]
O=c1ccn([C@@H]2O[C@H](CO)[C@@H](OP(=O)(O)O)[C@H]2O)c(=O)[nH]1 [3′UMP, 3′-uridylic acid] | binds directly in the active site of Nsp15 | approximately 60.5 °C | – | – | – | – | – | –
O=c1ccn([C@@H]2O[C@H](COP(=O)(O)O)[C@@H](O)[C@H]2O)c(=O)[nH]1 [5′UMP, 5′-uridylic acid] | binds directly in the active site of Nsp15 | approximately 60.5 °C | – | – | – | – | – | –
Cc1cn([C@H]2C[C@H](OP(=O)(O)O)[C@@H](CO)O2)c(=O)[nH]c1=O [3′TMP] | – | approximately 60.5 °C | – | – | – | – | – | –
uridine 2′,3′-vanadate [UV] | binds directly in the active site of Nsp15 | – | – | – | – | – | – | –
N=C1CCCN1Cc1[nH]c(=O)[nH]c(=O)c1Cl [tipiracil, 5-chloro-6-[(2-imino-1-pyrrolidinyl)methyl]-2,4(1H,3H)-pyrimidinedione] | binds directly in the active site of Nsp15 | approximately 60.5 °C | 72 µM | 0.5 °C | 7.5 µM | no inhibition | modest | did not affect the viability of cells
